Each structure is given as a SMILES string.

This assay has as its target T1, Polε (WT holoenzyme) (Saccharomyces cerevisiae, UniProt P21951).
T1 construct: gene POL2; four-subunit holoenzyme, GST tag on Pol2 cut with PreScission protease, gel filtration, expressed in yeast YRP654; with DNA polymerase epsilon subunit B; DNA polymerase epsilon subunit C; DNA polymerase epsilon subunit D
Kind of assay: gel-based primer extension, […]-labeled primer. Format: biochemical. The following applies: 50 μM dCTP running start opposite a run of 5 template G; 5 mM MgCl2, pH 7.5, 30 °C.

T1 sequence (P21951 whole entry): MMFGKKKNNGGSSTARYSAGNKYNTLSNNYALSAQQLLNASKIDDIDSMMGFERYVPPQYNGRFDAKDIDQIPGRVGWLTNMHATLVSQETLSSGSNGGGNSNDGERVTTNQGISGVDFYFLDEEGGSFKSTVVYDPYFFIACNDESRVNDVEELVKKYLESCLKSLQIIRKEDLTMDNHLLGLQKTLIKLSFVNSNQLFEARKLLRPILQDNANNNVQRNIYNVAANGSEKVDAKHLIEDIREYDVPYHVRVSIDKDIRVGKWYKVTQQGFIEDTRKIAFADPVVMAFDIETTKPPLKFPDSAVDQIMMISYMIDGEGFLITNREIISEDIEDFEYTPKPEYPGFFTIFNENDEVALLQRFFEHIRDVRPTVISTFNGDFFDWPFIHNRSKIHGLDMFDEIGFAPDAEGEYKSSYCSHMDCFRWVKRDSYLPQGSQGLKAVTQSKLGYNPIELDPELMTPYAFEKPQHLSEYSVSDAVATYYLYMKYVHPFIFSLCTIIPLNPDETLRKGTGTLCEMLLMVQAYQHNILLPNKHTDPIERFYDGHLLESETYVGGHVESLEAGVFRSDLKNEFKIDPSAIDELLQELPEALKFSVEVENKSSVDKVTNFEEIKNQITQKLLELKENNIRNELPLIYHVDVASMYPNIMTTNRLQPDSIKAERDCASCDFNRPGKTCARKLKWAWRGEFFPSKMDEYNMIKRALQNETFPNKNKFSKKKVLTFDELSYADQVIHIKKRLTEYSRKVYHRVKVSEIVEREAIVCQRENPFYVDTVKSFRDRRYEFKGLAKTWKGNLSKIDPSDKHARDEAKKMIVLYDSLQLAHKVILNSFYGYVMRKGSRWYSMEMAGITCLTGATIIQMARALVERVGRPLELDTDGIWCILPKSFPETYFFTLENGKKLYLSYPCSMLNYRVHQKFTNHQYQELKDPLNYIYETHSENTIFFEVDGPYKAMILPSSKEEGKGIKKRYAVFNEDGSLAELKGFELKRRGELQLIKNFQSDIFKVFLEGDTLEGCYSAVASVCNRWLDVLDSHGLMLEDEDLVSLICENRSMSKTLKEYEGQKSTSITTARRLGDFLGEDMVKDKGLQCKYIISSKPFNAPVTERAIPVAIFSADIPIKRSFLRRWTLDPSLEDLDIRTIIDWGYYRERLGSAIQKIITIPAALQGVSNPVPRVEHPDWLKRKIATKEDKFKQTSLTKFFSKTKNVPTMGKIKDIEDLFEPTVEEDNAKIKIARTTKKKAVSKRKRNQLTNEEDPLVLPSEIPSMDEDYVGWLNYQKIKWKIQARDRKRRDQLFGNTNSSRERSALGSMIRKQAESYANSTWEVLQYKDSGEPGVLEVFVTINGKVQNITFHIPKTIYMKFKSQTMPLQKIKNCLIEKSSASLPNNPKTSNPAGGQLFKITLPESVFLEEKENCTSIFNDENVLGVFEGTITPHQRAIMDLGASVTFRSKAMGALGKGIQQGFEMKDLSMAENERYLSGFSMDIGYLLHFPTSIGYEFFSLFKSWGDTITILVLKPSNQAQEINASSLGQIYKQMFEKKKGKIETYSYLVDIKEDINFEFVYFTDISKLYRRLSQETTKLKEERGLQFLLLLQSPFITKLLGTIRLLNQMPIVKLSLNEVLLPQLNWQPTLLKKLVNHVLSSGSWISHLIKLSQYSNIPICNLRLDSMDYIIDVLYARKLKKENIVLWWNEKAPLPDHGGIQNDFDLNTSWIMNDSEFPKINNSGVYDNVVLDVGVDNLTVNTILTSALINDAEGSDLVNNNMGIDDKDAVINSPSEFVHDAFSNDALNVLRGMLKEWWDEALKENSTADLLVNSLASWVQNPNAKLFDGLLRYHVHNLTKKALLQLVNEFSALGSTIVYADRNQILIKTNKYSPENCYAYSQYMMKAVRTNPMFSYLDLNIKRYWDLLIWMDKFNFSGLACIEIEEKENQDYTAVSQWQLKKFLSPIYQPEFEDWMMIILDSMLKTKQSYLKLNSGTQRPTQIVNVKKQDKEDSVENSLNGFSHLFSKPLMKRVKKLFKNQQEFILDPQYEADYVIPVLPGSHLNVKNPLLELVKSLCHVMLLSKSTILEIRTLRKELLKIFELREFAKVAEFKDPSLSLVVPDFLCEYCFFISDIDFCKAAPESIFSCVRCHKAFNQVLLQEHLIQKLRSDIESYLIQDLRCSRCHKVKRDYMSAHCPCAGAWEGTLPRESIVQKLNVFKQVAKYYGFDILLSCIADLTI
T1 sequence (P24482 whole entry partner): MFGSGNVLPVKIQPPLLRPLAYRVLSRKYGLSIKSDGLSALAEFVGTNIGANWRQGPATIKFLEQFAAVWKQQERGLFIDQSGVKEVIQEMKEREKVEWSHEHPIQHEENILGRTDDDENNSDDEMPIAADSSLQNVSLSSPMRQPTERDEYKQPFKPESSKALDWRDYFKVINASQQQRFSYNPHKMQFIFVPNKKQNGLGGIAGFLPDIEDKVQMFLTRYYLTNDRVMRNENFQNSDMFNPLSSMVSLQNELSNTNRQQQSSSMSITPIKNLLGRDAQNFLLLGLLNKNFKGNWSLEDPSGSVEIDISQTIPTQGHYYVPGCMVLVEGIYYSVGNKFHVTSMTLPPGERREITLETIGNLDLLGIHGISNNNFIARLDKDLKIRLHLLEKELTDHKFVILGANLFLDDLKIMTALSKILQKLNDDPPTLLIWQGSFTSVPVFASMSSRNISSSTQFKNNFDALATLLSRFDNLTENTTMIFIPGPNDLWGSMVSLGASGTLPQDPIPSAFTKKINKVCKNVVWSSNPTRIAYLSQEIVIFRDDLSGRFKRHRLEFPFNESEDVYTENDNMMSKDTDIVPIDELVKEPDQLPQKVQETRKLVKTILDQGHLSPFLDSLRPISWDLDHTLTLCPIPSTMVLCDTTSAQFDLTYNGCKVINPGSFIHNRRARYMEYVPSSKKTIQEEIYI
T1 sequence (P27344 whole entry partner): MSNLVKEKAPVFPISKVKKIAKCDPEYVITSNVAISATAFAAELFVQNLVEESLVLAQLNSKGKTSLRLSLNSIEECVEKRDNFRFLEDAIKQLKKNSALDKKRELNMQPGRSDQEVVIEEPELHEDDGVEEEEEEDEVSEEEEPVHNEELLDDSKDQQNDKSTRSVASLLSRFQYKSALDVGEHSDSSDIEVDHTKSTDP
T1 sequence (Q04603 whole entry partner): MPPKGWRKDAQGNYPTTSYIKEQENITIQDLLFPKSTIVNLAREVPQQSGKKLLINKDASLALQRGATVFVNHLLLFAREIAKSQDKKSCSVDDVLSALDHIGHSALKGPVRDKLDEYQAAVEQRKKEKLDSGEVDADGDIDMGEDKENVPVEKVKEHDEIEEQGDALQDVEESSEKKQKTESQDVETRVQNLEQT

Turning to `Nc1ccn([C@H]2C[C@H](O)[C@@H](COP(=O)(O)OP(=O)(O)OP(=O)(O)O)O2)c(=O)n1` [dCTP], the “gel-based primer extension, 32P-labeled primer” value is “dCTP was added to initiate DNA synthesis opposite the template G residues”.

These data come from article PMC9791402, “Yeast 9-1-1 complex acts as a sliding clamp for DNA synthesis by DNA polymerase ε” (The Journal of Biological Chemistry, 2022).
